Results published in publication PMC7718273 (Scientific Reports, 2020).
Values after ≈ are worked out from the molar mass of the structure shown. Where two headings read alike, the source gives them in different places.

How the values were obtained:
[1] = tested on: T1, endogenous mouse FAP; assay: Acute study using ob/ob mice: plasma FAP activity; format: in vivo; details: single oral dose 20 or 50 mg/kg, in 1 h, maintained up to 9 h
T1 construct: from tissue; host or cells: mouse serum/plasma (ob/ob and C57BL/6J mice)

[2] = Pharmacokinetic study in rats; format: in vivo; details: male, Sprague-Dawley, plasma, rat, oral 10 mg/kg
Description: Six male Sprague–Dawley rats (7-week-old, 240–250 g) were obtained from Orient Bio INC. (Seongnam, Gyeonggi-do, Korea) and maintained at 22℃ on a 12-h light/12-h dark cycle with free access to water. All animals were maintained under such conditions for a minimum of 2 weeks prior to initiation of the studies. […] Plasma sample preparations and analysis were the same as described in mice study.

[3] = molecular target: T2, hFAP (Homo sapiens, UniProt Q12884); assay: FAP enzyme activity, fluorometric assay with AMC substrate; format: biochemical
T2 construct: purchased R&D Systems 3715-SE
T2 sequence (Q12884 whole entry): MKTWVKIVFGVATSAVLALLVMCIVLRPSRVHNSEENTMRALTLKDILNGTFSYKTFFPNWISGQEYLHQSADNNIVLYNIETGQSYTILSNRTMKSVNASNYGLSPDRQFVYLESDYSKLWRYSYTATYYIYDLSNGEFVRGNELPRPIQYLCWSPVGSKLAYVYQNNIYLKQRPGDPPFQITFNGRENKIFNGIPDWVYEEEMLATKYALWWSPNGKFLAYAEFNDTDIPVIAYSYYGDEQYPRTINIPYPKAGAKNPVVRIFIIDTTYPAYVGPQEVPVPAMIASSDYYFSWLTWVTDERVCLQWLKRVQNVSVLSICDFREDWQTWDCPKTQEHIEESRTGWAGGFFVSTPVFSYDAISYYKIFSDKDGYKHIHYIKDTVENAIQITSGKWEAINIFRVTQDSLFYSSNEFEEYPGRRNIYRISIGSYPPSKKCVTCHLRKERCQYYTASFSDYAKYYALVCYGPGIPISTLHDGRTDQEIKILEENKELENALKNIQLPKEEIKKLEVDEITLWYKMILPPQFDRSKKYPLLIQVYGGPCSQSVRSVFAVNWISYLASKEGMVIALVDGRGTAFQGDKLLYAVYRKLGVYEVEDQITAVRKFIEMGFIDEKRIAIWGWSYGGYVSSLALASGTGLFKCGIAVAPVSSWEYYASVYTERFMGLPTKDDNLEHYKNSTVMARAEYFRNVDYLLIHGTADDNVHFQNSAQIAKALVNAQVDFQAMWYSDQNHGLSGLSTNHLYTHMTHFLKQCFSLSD
Procedure: (§1) Recombinant human PREP (hPREP) (catalog no. 4308-SE), hDPP2/7 (catalog no. 3438-SE), hDPP9 (catalog no. 5419-SE), hFAP (catalog no. 3715-SE), and hDPP4 (catalog no. 9168-SE) proteins were from R&D Systems (Minneapolis, MN). Human FGF21 (catalog no. CRF159C) was from Cell Science (Newburyport, MA).
(§2) FAP enzyme activities were assayed in 20 mM Tris/HCl, 0.1 M NaCl, 1 mM EDTA (pH 8.0) in the presence of 40 μM Suc-Gly-Pro-Leu-Gly-Pro-AMC (#I-1350.0100, BACHEM, Bubendorf, Switzerland) and hFAP in a total volume of 100 µL. […] The inhibitor concentrations ranged from 100 μM to 0.03 nM, and its IC50 values were computed with commercially available curve-fitting programs such as the SigmaPlot. Other protease activities were determined in a similar manner.

[4] = molecular target: T3, CYP 2C19 (Homo sapiens, UniProt P33261); assay: CYPs inhibition, human liver microsome, substrate cocktail; format: in vitro ADME; details: 3rd of 5 values; head prints D; footnote lists CYPs 1A2, 2C9, 2C19, 2D6, 3A4; read-out: CYPs inhibition (IC50, µM) (H/Mk/D/R/M)
T3 construct: from tissue; host or cells: human liver microsomes
T3 sequence (P33261 whole entry): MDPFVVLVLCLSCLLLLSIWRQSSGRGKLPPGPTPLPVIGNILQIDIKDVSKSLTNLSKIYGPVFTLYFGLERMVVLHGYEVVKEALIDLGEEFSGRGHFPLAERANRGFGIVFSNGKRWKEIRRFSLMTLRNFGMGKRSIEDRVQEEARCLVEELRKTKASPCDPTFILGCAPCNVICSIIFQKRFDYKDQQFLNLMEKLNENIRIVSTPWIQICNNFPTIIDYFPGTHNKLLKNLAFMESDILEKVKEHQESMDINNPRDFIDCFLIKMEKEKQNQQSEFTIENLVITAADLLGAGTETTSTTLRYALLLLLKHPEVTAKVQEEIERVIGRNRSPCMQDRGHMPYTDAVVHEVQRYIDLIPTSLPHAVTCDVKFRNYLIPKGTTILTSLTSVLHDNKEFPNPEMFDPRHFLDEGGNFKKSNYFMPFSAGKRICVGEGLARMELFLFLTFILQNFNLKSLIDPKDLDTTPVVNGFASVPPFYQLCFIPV
Description: Metabolites of the substrate probes were simultaneously analyzed by multiple-reaction monitoring using routine LC-MS/MS.

[5] = Kinetic solubility; format: physicochemical; details: 22 °C, kinetic from dmso stock
Procedure: Kinetic solubility was conducted as described. […] The samples were agitated for 2 h using a plate shaker (500 rpm, 22℃). Approximately 150 µL of the resulting supernatant was transferred to a 96-well analysis plate and the calibration and test samples were analyzed by HPLC with a diode array detector (Agilent 1200 HPLC) comprising a reverse-phase Kinetex XB-C18 column (2.1 × 100 mm, 2.6 µm; Phenomenex). Mobile phases were composed of 0.1% FA in water (A) and 0.1% FA in ACN (B).

[6] = molecular target: T4, DPP9 (Homo sapiens, UniProt Q86TI2); assay: DPP9 activity, fluorometric assay with AMC substrate; format: biochemical; details: fluorometric assay using AMC substrates
T4 construct: purchased R&D Systems 5419-SE
T4 sequence (Q86TI2 whole entry): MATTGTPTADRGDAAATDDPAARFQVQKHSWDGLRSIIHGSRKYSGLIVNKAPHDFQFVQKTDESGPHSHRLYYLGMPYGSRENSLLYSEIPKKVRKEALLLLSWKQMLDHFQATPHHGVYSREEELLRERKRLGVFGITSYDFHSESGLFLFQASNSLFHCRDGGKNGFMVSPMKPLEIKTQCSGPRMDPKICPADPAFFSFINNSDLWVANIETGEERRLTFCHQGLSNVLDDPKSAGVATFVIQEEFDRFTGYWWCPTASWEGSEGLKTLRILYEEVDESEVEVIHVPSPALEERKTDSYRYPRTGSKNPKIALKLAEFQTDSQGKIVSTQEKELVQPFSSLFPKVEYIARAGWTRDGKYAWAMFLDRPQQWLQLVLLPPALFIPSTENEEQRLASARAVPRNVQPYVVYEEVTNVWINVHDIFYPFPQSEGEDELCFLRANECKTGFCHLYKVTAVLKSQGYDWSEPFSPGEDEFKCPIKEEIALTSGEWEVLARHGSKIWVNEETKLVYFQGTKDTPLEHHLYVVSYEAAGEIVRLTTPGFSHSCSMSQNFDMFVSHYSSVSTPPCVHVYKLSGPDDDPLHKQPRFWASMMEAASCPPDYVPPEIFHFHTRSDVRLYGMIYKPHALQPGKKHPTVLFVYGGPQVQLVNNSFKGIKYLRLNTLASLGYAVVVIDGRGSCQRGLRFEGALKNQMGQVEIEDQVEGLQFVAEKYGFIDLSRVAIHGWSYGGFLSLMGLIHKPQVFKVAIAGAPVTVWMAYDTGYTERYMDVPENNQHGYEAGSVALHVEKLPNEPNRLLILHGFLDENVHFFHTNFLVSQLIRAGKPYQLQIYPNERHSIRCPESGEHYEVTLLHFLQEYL
Procedure: as §1, §2

[7] = Plasma protein binding, human; format: in vitro ADME; details: human (H), read-out: Plasma protein binding (% bound) (converted)
Procedure: Protein binding was conducted as described. Compound solutions prepared in DMSO were diluted in phosphate buffer (final concentration: 1 µg/mL), and added into human plasma (total volume: 1 mL). Aliquots were then transferred in duplicate to: (i) a final concentration plate that was immediately quenched with 23.6 ng/mL internal standard (IS, chlorpropamide) in ACN, (ii) a degradation control, which was placed in a water bath at 37℃ for 4 h, and (iii) ultracentrifuge tubes, which were centrifuged for 5 min at 4℃ (14,000 rpm). All reactions were stopped by the addition of ACN containing 23.6 ng/mL chlorpropamide. The samples were subjected to LC–MS/MS analysis.

[8] = molecular target: T5, serum FAP (Mus musculus, UniProt P97321); assay: IC50 on serum FAP, mice; format: biochemical
T5 construct: from tissue; host or cells: mouse serum/plasma (ob/ob and C57BL/6J mice)
T5 sequence (P97321 24-761 limits assumed): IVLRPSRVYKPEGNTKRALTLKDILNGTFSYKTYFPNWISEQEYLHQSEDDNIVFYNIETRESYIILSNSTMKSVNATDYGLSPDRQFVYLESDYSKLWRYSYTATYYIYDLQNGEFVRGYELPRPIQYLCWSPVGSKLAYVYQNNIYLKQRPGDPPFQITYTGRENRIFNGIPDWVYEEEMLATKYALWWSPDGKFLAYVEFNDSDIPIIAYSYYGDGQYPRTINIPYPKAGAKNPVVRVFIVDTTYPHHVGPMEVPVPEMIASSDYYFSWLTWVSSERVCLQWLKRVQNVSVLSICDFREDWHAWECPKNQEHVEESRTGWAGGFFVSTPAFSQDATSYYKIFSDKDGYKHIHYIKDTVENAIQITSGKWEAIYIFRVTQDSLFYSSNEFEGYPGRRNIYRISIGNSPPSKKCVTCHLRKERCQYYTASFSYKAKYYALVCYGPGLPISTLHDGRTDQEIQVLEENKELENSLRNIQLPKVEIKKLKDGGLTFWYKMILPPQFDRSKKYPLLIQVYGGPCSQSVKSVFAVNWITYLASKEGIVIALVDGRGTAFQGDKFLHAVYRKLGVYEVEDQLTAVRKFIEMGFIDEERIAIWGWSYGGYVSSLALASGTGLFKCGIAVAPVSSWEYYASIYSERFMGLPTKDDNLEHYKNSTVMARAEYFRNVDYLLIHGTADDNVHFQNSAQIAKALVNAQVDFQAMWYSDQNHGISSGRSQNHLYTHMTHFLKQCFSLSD

[9] = Plasma stability, human; format: in vitro ADME; details: pH 7.4, read-out: Plasma stability (% remaining at 60 min)
Procedure: Aliquots were then transferred in duplicate to: (i) a final concentration plate that was immediately quenched with 23.6 ng/mL internal standard (IS, chlorpropamide) in acetonitrile (ACN) or (ii) tubes, which were centrifuged for 5 min at 4℃ (14,000 rpm). The samples were subjected to LC–MS/MS analysis on an AB Sciex 4000 Q Trap hybrid triple quadrupole linear ion-trap MS (AB Sciex, Framingham, MA) coupled to an Agilent 1200 HPLC (Agilent Tech. Santa Clara, CA) with a reverse-phase Kinetex XB-C18 column (2.1 × 100 mm, 2.6 µm; Phenomenex). Mobile phases were comprised of 0.1% formic acid (FA) in water (A) and 0.1 FA in ACN (B). Data analysis was performed using […] (Ver. 1.6.1).

[10] = tested on: T6, FAP; assay: In vivo study using CDAHFD mice: FAP activity at week 14; design: species or system C57BL/6J mice; details: 10 and 30 mg/kg p.o. for 10 weeks, vs vehicle
T6 construct: from tissue; host or cells: mouse serum/plasma (ob/ob and C57BL/6J mice)
Procedure: C57BL/6J mice were fed normal chow diet (n = 5) or choline-deficient, L-amino acid-defined, high-fat diet (CDAHFD) for 4 weeks to induce NASH (n = 8–10/group). […] (a) Relative FAP activity was assessed by FRET-quench and serum FGF21 level at week 14. […] (c) Steatosis scores ranged from 0 to 3 (normal = 0, minimal = 1, moderate = 2, marked = 3) were determined. Hepatic steatosis and fibrosis (Picrosirius red stain) were analyzed in a blinded manner or by digital image analyzer. (d–e) Histological evaluations of liver tissue were performed in each group. Paraffin-embedded liver sections were stained with H&E (d) and Sirius red (e). Representative photographs of each group were presented. Images were obtained at 100x (Scale bar = 50 µm).
Male C57BL/6J mice (5 weeks of age) were fed with a CDAHFD consisting of 60% kcal fat and 0.1% methionine. […] For the CDAHFD model, compound treatments were started at the beginning of week 4 on the diet and continued until week 14. […] Liver tissue was then collected. All other measurements were done similarly as described above. Staining was performed using H&E and Picrosirius red as described previously. Areas of positive Sirius red were quantified by computer-based morphometric analysis.

N#Cc1ccc(Cc2nc(C(=O)NCC(=O)N3CC(F)(F)C[C@H]3C#N)cs2)cc1 [BR103354, (S)-N-(2-(2-cyano-4,4-difluoropyrrolidin-1-yl)-2-oxoethyl)-2-(4-cyanobenzyl)thiazole-4-carboxamide]
inhibition of plasma FAP activity [1]: more than 70% | Cmax [2]: 4400 ng/mL | Tmax [2]: 1.1 h | half-life [2]: 3.5 h | AUC(0-t) ([2]; read-out: AUC(0–6 h)): 19700 ng·h/mL | IC50 ([3]; 40 μM Suc-Gly-Pro-Leu-Gly-Pro-AMC, 60 min at 37 °C, read-out: IC50 (nM) FAP): 14 nM | IC50 ([3]; various assays: SDS-PAGE shift, AMC-coupled substrate, serum samples from different species, read-out: IC50 values on FAP, all measurements): 10 to 30 nM | IC50 [4]: > 50 µM | solubility kinetic at 2 h ([5]; pH 3.5, aqueous buffer): 81 µg/mL (≈ 195 µM) | solubility kinetic at 2 h ([5]; simulated gastric fluid, pH 1.0): 79 µg/mL (≈ 190 µM) | solubility kinetic at 2 h ([5]; phosphate buffer, pH 7.4, aqueous buffer): 78 µg/mL (≈ 188 µM) | IC50 [6]: 5040 nM | fraction unbound at 1 µg/mL [7]: 0.33 | IC50 ([8]; mice, monkeys and humans together, read-out: serum FAP IC50 values, all three species): 27 to 31 nM | IC50 ([8]; read-out: Serum FAP IC50 (nM): Mouse): 31 nM | remaining at 1 h, 1 µM [9]: > 100% | FAP activity [10]: inhibited in a dose-dependent manner
